*1 amine or outer side, *2 acyl side, *3 side chain or, on linkers, in order; H or OH if unused. Where a SMILES comes first, the peptide text is derived from it. [ ]: non-standard residue; d: D form. X1 = C/C=C/C[C@@H](C)C1ON([*:1])[C@@H]1C(=O)[*:2]; X2 = CNCC(C)(C)[C@@H](C(=O)[*:2])N(C)[*:1]; NMeL = CN[C@@H](CC(C)C)C(=O)O; NMeV = CN[C@H](C(=O)O)C(C)C; dNMeA = CN[C@H](C)C(=O)O; Abu = CC[C@H](N)C(=O)O

For orientation: EC50 means the concentration needed to bring the measured effect to its halfway point.

The subject of the test is HCV 1a genotype. The class given is cell-based, hepatitis C virus. The conditions noted are these: Genotype-1a replicon, Luciferase assay, 72 hours.

`C/C=C/C[C@@H](C)C1ON2C(=O)[C@H](C(C)C)N(C)C(=O)[C@H](CC(C)C)N(C)C(=O)[C@H](CC(C)C)N(C)C(=O)[C@@H](C)NC(=O)[C@H](C)NC(=O)[C@H](CC(C)C)N(C)C(=O)[C@H](C(C)C)NC(=O)[C@H](C(C)(C)CNC)N(C)C(=O)[C@@H](C)N(C)C(=O)[C@H](CC)NC(=O)[C@H]12` (stereo partly shown) [Example 1] (cyclo(A[dA][NMeL][NMeL][NMeV][X1][Abu][dNMeA][X2]V[NMeL])) returned an EC50 of 0.01 to 0.1 µM.

The values above are taken from patent publication US9669095B2, “Cyclosporin analogues for preventing or treating hepatitis C infection” (Enanta Pharmaceuticals, Inc., priority 2014, dated 2017).
